Laboratory results from PMC5623949, “Exploiting the 2-Amino-1,3,4-thiadiazole Scaffold To Inhibit Trypanosoma brucei Pteridine Reductase in Support of Early-Stage Drug Discovery” (ACS Omega, 2017).
Read-outs that look alike come from different tables or passages of the source.

Legend:
TbPTR1 = molecular target: T1, TbPTR1 (Trypanosoma brucei brucei, UniProt O76290); assay: biochemical; details: for inhibition at 50 µM: read-out: % Inhibition TbPTR1 at 50 μM
T1 construct: made in house
T1 sequence (O76290 1-268): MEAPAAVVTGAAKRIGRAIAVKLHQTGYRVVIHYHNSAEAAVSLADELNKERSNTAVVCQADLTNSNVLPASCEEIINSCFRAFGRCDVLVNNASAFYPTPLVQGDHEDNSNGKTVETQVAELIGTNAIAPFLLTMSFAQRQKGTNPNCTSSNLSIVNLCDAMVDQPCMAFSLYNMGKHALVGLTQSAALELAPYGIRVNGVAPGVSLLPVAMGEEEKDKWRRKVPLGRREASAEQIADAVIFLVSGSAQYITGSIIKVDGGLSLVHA

[1] = tested on: T. b. brucei Lister 427 bloodstream forms; assay: In vitro activity against T. brucei (HTS SYBR Green I growth inhibition assay); format: cell-based, Trypanosoma brucei brucei; details: standard deviation within ±10% of the value; for inhibition at 50 µM / EC50: Trypanosoma brucei; for inhibition at 50 µM: read-out: % Inhibition T. brucei at 50 μM; for EC50: read-out: EC50 T. brucei
hERG = molecular target: T2, hERG (Homo sapiens, UniProt Q12809); set-up: hERG inhibition liability assay
T2 construct: gene KCNH2
Protocol: (§1) Independent of the effect of any antiparasitic potential of compounds, they were evaluated using a panel of early-toxicity assays comprising cytotoxicity (A549, human lung adenocarcinoma epithelial cell line and WI-38, human lung fibroblasts), mitochondrial toxicity (786-O, human renal carcinoma cell line), hERG inhibition,[31] cytochrome P450 inhibition (CYP1A2, CYP2C9, CYP2C19, CYP2D6, and CYP3A4),[31] and Aurora B kinase inhibition. […] For the two compounds active against TbPTR1 (4m and 4o), IC50 against hERG, cytochrome P450, and mitochondrial toxicity were determined (reported in Supporting Information). We observed that the dose of compounds 4m, 4o, 4c, and 3k was 4 μM in the potentiation assays. […] In the case of hERG, CYP2D6, CYP2A9, CYP2C19, and mitochondrial toxicity, there is a selectivity index of around 3–4 fold, thus showing an acceptable profile.  Figure 10 Summary heat map of the in vitro assays to determine possible liability issues for all synthesized compounds. Assays were performed to assess inhibition of hERG and five CYP isoforms (1A2, 2C9, 2C19, 2D6, and 3A4), growth inhibition of A549 and W1-38 cell lines, and mitochondrial toxicity at 10 μM. The hDHFR inhibition was determined at 100 μM. The data, expressed as percentage values, were organized by adopting a color code for rapid and intuitive visualization. The ideal compound should have all tiles blue, indicating a safe toxicological profile for progressing into the development pipeline. The cells are colored from blue (100% of cell growth at the tested concentration) to red (0% of cell growth at the tested concentration) for A549 and W1-38 and from blue (0% of inhibitory activity at the tested concentration) to red (100% of inhibitory activity at the tested concentration) for CYP isoforms, hERG, hDHFR, and mitochondrial toxicity.

CYP1A2 = molecular target: T3, CYP1A2 (Homo sapiens, UniProt P05177); assay: in vitro; set-up: cytochrome P450 isoform inhibition liability assay
T3 sequence (P05177 1-516): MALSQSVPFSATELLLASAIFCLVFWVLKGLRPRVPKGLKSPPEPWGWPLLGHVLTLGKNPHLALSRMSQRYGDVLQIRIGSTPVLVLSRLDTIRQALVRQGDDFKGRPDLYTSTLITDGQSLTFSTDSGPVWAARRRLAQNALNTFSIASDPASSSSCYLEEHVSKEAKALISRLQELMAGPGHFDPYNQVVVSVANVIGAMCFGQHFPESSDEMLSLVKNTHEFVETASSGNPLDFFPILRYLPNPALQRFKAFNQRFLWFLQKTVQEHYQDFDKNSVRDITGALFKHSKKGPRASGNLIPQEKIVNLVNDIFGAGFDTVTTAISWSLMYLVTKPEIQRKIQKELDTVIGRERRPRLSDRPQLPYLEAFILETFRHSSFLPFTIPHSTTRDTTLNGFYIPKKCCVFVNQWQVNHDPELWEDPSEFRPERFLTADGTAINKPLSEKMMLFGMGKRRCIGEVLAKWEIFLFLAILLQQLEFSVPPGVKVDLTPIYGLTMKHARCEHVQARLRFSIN
Protocol: as §1

CYP2C19 = CYP2C19 (Homo sapiens, UniProt P33261); assay: in vitro; set-up: cytochrome P450 isoform inhibition liability assay
Protocol: as §1

CYP2C9 = CYP2C9 (Homo sapiens, UniProt P11712); assay: in vitro; set-up: cytochrome P450 isoform inhibition liability assay
Protocol: as §1

CYP2D6 = CYP2D6 (Homo sapiens, UniProt P10635); assay: in vitro; set-up: cytochrome P450 isoform inhibition liability assay
Protocol: as §1

CYP3A4 = CYP3A4 (Homo sapiens, UniProt P08684); assay: in vitro; set-up: cytochrome P450 isoform inhibition liability assay
Protocol: as §1

hDHFR = molecular target: T4, hDHFR (Homo sapiens, UniProt P00374); assay: biochemical; set-up: human DHFR enzyme inhibition
T4 construct: gene DHFR
T4 sequence (P00374 1-187): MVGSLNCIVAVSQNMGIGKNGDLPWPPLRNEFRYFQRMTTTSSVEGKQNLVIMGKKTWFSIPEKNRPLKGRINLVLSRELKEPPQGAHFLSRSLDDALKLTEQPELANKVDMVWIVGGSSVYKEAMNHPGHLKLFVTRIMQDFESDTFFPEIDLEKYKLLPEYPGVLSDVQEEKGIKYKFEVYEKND
Protocol: Figure 10 Summary heat map of the in vitro assays to determine possible liability issues for all synthesized compounds. Assays were performed to assess inhibition of hERG and five CYP isoforms (1A2, 2C9, 2C19, 2D6, and 3A4), growth inhibition of A549 and W1-38 cell lines, and mitochondrial toxicity at 10 μM. The hDHFR inhibition was determined at 100 μM. The data, expressed as percentage values, were organized by adopting a color code for rapid and intuitive visualization. The ideal compound should have all tiles blue, indicating a safe toxicological profile for progressing into the development pipeline. The cells are colored from blue (100% of cell growth at the tested concentration) to red (0% of cell growth at the tested concentration) for A549 and W1-38 and from blue (0% of inhibitory activity at the tested concentration) to red (100% of inhibitory activity at the tested concentration) for CYP isoforms, hERG, hDHFR, and mitochondrial toxicity.

786-O = assay: cells; set-up: mitochondrial toxicity in 786-O renal carcinoma cells; details: Homo sapiens, 786-0; mitochondrial toxicity
Protocol: as §1

in vitro [2] = assay: in vitro; set-up: cytotoxicity, per cent cell growth of A549 cells; details: human, a549 cells; read-out: % cell growth A549 at 10uM
Protocol: as §1

in vitro [3] = assay: in vitro; set-up: cytotoxicity, per cent cell growth of WI-38 fibroblasts; details: human, wi-38 cells; read-out: % cell growth W1-38 at 10uM
Protocol: as §1

Chain of CYP2C9 (P11712 whole entry, canonical isoform): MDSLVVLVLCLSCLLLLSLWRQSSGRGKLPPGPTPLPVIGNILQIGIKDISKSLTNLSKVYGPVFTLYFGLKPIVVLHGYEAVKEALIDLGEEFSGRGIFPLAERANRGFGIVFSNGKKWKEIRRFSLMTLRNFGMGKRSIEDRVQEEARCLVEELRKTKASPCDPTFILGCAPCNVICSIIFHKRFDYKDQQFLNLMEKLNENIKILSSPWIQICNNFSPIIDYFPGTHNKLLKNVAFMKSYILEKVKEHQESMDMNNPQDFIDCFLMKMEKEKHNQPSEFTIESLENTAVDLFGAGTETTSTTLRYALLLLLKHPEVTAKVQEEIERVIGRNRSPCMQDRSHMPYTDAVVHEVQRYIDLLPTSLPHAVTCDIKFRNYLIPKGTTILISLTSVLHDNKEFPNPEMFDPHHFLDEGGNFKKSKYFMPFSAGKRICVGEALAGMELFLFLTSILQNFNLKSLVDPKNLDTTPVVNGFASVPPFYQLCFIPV
Chain of CYP3A4 (P08684 whole entry, canonical isoform): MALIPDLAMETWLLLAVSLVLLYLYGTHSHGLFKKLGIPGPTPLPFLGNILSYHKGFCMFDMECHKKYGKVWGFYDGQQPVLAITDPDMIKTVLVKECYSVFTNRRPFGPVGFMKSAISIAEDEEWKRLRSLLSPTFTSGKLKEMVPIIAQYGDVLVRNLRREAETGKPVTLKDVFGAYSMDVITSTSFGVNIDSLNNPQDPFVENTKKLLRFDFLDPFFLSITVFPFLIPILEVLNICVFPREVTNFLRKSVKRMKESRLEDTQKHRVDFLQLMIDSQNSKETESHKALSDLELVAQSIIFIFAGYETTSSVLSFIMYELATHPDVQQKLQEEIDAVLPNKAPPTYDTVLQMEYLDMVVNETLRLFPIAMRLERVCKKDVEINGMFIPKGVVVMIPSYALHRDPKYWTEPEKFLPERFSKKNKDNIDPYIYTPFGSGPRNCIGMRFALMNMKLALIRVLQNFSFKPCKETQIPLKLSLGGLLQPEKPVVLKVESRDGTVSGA
Chain of CYP2C19 (P33261 whole entry, canonical isoform): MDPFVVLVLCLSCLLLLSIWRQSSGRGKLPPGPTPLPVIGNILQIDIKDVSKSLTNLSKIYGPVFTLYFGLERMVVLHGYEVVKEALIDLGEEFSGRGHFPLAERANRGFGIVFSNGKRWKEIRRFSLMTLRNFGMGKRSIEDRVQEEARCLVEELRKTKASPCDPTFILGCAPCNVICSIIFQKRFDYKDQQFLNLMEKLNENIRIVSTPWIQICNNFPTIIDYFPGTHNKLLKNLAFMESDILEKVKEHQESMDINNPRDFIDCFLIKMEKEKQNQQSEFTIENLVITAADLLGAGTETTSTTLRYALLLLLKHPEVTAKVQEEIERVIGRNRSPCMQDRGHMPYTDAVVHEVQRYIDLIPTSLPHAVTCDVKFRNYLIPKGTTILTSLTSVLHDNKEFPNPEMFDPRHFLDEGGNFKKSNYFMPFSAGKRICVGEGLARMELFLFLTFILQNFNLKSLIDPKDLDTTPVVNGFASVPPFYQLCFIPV
Chain of CYP2D6 (P10635 whole entry, canonical isoform): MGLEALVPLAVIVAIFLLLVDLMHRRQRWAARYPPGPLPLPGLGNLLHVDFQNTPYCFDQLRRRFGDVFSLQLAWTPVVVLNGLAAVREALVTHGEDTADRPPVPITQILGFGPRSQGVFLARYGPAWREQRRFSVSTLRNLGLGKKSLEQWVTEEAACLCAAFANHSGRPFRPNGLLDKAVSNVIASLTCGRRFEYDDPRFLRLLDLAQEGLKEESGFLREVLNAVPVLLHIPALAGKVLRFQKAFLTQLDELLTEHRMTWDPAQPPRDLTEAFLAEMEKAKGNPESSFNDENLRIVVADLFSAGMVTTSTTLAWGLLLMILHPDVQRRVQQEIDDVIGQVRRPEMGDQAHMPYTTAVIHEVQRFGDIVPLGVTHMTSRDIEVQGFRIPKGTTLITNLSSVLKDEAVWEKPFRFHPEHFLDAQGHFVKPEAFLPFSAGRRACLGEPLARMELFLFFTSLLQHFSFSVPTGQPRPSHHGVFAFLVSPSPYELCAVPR
T2 sequence (Q12809 whole entry): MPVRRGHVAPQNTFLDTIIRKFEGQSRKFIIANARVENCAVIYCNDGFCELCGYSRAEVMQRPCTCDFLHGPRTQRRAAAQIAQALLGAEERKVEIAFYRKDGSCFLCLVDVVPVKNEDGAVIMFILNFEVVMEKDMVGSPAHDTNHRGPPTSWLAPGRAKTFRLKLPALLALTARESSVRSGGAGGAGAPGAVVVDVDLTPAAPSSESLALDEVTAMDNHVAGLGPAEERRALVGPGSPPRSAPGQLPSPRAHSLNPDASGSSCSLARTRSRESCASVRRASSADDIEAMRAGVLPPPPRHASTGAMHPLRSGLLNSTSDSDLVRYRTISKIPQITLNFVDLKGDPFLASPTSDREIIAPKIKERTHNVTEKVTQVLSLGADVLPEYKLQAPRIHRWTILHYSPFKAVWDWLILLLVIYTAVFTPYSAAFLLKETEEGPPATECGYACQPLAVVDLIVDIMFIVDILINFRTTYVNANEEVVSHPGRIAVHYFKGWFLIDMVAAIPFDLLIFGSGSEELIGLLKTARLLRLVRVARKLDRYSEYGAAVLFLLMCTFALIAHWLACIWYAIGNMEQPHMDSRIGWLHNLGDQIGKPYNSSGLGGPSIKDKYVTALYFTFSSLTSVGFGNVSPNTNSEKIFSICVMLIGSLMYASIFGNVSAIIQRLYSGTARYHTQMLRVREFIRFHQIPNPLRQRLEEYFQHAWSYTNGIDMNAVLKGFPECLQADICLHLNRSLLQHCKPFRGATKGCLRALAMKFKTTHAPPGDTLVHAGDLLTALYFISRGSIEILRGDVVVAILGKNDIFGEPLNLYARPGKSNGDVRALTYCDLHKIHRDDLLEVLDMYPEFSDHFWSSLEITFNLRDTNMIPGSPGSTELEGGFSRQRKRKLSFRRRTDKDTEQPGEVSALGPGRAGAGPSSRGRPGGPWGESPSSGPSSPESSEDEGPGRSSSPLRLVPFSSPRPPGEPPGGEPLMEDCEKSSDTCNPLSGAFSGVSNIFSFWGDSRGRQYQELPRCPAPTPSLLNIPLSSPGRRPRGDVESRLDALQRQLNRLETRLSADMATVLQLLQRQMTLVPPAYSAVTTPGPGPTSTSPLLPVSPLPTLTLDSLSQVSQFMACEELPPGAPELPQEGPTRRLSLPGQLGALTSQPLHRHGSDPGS

| Compound | inhibition at 50 µM (TbPTR1; 50 μM compound) | inhibition at 50 µM ([1]; 50 μM) | inhibition at 10 µM (hERG) | inhibition at 10 µM (CYP1A2) | inhibition at 10 µM (CYP2C19) | inhibition at 10 µM (CYP2C9) | inhibition at 10 µM (CYP2D6) | inhibition at 10 µM (CYP3A4) | inhibition at 100 µM (hDHFR) | inhibition at 10 µM (786-O) | viability at 10 µM (in vitro [2]) | viability at 10 µM (in vitro [3]) | EC50 [1] | % Inhibition TbPTR1 at 50 μM (TbPTR1; 50 μM compound) | IC50 (TbPTR1; dose-response 0.001-100 μM) | % Inhibition T. brucei at 50 μM ([1]; 50 μM) | inhibition at 10 µM (hDHFR) | inhibition at 25 µM (hDHFR; 25 uM) |
| --- | --- | --- | --- | --- | --- | --- | --- | --- | --- | --- | --- | --- | --- | --- | --- | --- | --- | --- |
| COc1ccc(-c2nnc(N)s2)cc1OC [1c] | 9.4 ± 0.3% | 64.3% | 13.6 ± 4% | 14.1 ± 3.4% | -26.1 ± 22.5% | -25.9 ± 1.5% | -45.9 ± 3.1% | -7.1 ± 6% | 42% | -7.3 ± 5.2% | 105 ± 5.3% | 110 ± 33.5% |  |  |  |  |  |  |
| Nc1nnc(-c2ccc(O)c(O)c2)s1 [1d, 3′,4′-dihydroxy-phenyl-1,3,4-thiadiazole] | 16.7 ± 1% | 78.6% | 19.2 ± 6.4% | -16.8 ± 6.9% | -32.3 ± 7.8% | -19.5 ± 5.6% | -28.4 ± 10.1% | -8.1 ± 3.2% | 62% | -0.1 ± 6.2% | 145.9 ± 0.7% | 99.9 ± 17.5% | 18.3 µM |  |  |  |  |  |
| Nc1nnc(-c2cc(O)c(O)c(O)c2)s1 [1f, 3′,4′,5′-trihydroxy-phenyl-1,3,4-thiadiazole] | 44.9 ± 0.9% |  | 3.3 ± 2.2% | 71.4 ± 6.9% | 67.4 ± 7.3% | 38.2 ± 5.4% | -6 ± 7.3% | 67.7 ± 3.1% | 31% | -9.6 ± 7.9% | 118 ± 3.1% | 111 ± 12.9% | 1 µM | did not show inhibition | 41 µM | 100.0% |  |  |
| COc1cccc(OC)c1-c1nnc(N)s1 [1g] | 14.1 ± 1.2% | 4.2% | 4.3 ± 2% | 8.9 ± 0.3% | -30.6 ± 12.9% | -5.6 ± 1.3% | -30.5 ± 5.6% | 13 ± 6.4% | 12% | -3.9 ± 2% | 149.9 ± 0.3% | 80.3 ± 6.8% |  |  |  |  |  |  |
| COc1ccccc1-c1nnc(N)s1 [1h] | 24.1 ± 1% | < 0% | 5.2 ± 6.6% | 21.5 ± 4.6% | -20.9 ± 16.1% | -32.3 ± 3.6% | -31.5 ± 9.5% | -9.4 ± 8% | 14% | -7.8 ± 2.6% | 126 ± 17.3% | 129 ± 10.3% |  |  |  |  |  |  |
| Nc1nnc(-c2cccc(Br)c2)s1 [1i] | 34.2 ± 1.5% | 1.8% | 14.6 ± 4.2% | 47 ± 2% | -30.9 ± 4.3% | -47.7 ± 2% | -45.1 ± 6.2% | -14.1 ± 6% | 19% | -3.6 ± 9.1% | 135 ± 4.6% | 111 ± 12.3% |  |  |  |  |  |  |
| Nc1nnc(-c2ccc(Cl)c(Cl)c2)s1 [1l] | 15.6 ± 0.7% | 30% | 91.7 ± 8.4% | 80.6 ± 1.6% | 64.9 ± 1.7% | 46.7 ± 1.5% | 52.7 ± 2.1% | 35.7 ± 7.9% |  | 7.6 ± 8.3% | 107 ± 1.2% | 77.8 ± 22.1% |  |  |  |  | 18% |  |
| Nc1nnc(-c2ccc(-c3nnc(N)s3)c(N)c2)s1 [1o] | 23.4 ± 0.1% | 1.6% | -1.9 ± 4.9% | 9.5 ± 4.2% | -28.3 ± 16% | -4.2 ± 4.2% | -38 ± 5.7% | -0.7 ± 4.4% |  | -6.1 ± 4.3% | 118 ± 9.4% | 103 ± 1.8% |  |  |  |  | 12% |  |
| Nc1nnc(-c2ccc(OCc3ccc(Cl)c(Cl)c3)cc2)s1 [1r] | < 0% | 58.4% | 40.7 ± 7.5% | 24.7 ± 1.4% | 69.6 ± 5.2% | 31.3 ± 0.4% | 48 ± 0.9% | 14.9 ± 5.7% | 17% | 4.7 ± 7.8% | 104 ± 6.6% | 68.7 ± 17.9% |  |  |  |  |  |  |
| COc1ccc(-c2ccc(-c3nnc(N)s3)nc2)cc1 [1t] | 8.3 ± 1.8% | 28.9% | 59.5 ± 42.9% | 76.4 ± 1.2% | 17 ± 5.7% | 19.7 ± 8.9% | 8.9 ± 2.4% | 8.5 ± 3.3% |  | 6.7 ± 17.3% | 60.7 ± 5.9% | 107 ± 10.4% |  |  |  |  | 8% |  |
| Nc1cccc(-c2ccc(-c3nnc(N)s3)cc2)c1 [2b] | 16.2 ± 0.5% | 33.4% | 9.1 ± 4.4% | 44.6 ± 1.5% | -3.9 ± 13.3% | 1.9 ± 1% | -16.1 ± 6.6% | 32 ± 3.7% |  | -1 ± 2.2% | 137 ± 11.1% | 73.4 ± 2.5% |  |  |  |  | 17% |  |
| Nc1nnc(-c2cccc(-c3ccccc3)c2)s1 [2c] | 25.2 ± 1.4% | 14.4% | 83.7 ± 2.5% | 101 ± 1.4% | 65.1 ± 6.8% | 24.1 ± 0.4% | 48.2 ± 2.3% | 59.5 ± 3.7% |  | 0% | 115 ± 5.3% | 87.2 ± 13.8% |  |  |  |  |  | 23% |
